The record followed here is ChEMBL document CHEMBL1275276, “Analysis of physico-chemical properties of substrates of ABC and MFS multidrug transporters of pathogenic Candida albicans” (2010).

Assay [1] deals with Saccharomyces cerevisiae. Description: Antifungal activity against yeast AD1-8u expressing Candida albicans CaMdr1p by agar disk diffusion assay. Note: test concentration or dose not given here. Type of assay: functional.
The subject of assay [2] is Candida albicans. Description: Binding affinity to Candida albicans CaCdr1p expressed in yeast AD1-8u.
The subject of assay [3] is Saccharomyces cerevisiae. Put plainly: Antifungal activity against yeast AD1-8u expressing Candida albicans CaCdr1p by agar disk diffusion assay. It counts as functional.
The subject of assay [4] is Candida albicans. Description: Binding affinity to Candida albicans CaMdr1p expressed in yeast AD1-8u.

Active and inactive are the calls of the source. The rule behind the calls is not given here.
Throughout, for IZ: test concentration or dose not given here.

Turning to `CCC(C)n1ncn(-c2ccc(N3CCN(c4ccc(OCC5COC(Cn6cncn6)(c6ccc(Cl)cc6Cl)O5)cc4)CC3)cc2)c1=O` (stereo not given) [ITRACONAZOLE], the figures for the “inhibition zone (IZ)” value in the assay with Saccharomyces cerevisiae [1] and in the assay with Saccharomyces cerevisiae [3] were 0 cm and 1.1 cm, respectively. Also, the outcome with Candida albicans [2] was Active. Besides, the outcome with Candida albicans [4] was inactive.

With `NC[C@H]1O[C@H](O[C@H]2[C@H](O)[C@@H](O[C@H]3O[C@H](CO)[C@@H](O)[C@H](N)[C@H]3O)[C@H](N)C[C@@H]2N)[C@H](O)[C@@H](O)[C@@H]1O` [KANAMYCIN], the figures for the “inhibition zone (IZ)” value in the assay on Saccharomyces cerevisiae [1] and with Saccharomyces cerevisiae [3] were 0.3 cm and 0.1 cm, respectively. Further, in the assay on Candida albicans [2], the result was inactive. Besides, the result with Candida albicans [4] was Active.

As for `CCC[C@@H]1C[C@@H](C(=O)N[C@@H]([C@H]2O[C@H](SC)[C@H](O)[C@@H](O)[C@H]2O)[C@@H](C)O)N(C)C1` [LINCOMYCIN], the “inhibition zone (IZ)” value with Saccharomyces cerevisiae [1] and with Saccharomyces cerevisiae [3] was 0 cm in each case. Also, the result in the assay with Candida albicans [2] and in the assay on Candida albicans [4] was inactive.

As to `CON(C)C(=O)Nc1ccc(Cl)c(Cl)c1` [LINURON], the figures for the “inhibition zone (IZ)” value in the assay with Saccharomyces cerevisiae [1] and with Saccharomyces cerevisiae [3] were 0.6 cm and 0.8 cm, respectively. In addition, the result in the assay with Candida albicans [2] and with Candida albicans [4] was Active.

Take `CN(Cc1cnc2nc(N)nc(N)c2n1)c1ccc(C(=O)N[C@@H](CCC(=O)O)C(=O)O)cc1` [METHOTREXATE]: the “inhibition zone (IZ)” value is 0.8 cm in the assay on Saccharomyces cerevisiae [1] and 0.1 cm in the assay with Saccharomyces cerevisiae [3]. Besides, the result in the assay with Candida albicans [2] was inactive. Also, the result in the assay on Candida albicans [4] was Active.

`Clc1ccc(COC(Cn2ccnc2)c2ccc(Cl)cc2Cl)c(Cl)c1` (stereo not given) [MICONAZOLE]: the “inhibition zone (IZ)” value was 0.2 cm in the assay with Saccharomyces cerevisiae [1] and 0.5 cm with Saccharomyces cerevisiae [3]. The result in the assay on Candida albicans [2] was Active. In addition, the result in the assay on Candida albicans [4] was inactive.

For the molecule `O=C1c2c(O)ccc(O)c2C(=O)c2c(NCCNCCO)ccc(NCCNCCO)c21` [MITOXANTRONE], the entries for the “inhibition zone (IZ)” value with Saccharomyces cerevisiae [1] and in the assay with Saccharomyces cerevisiae [3] were 0.3 cm and 0.2 cm, respectively. The outcome with Candida albicans [2] was inactive. Besides, in the assay on Candida albicans [4], the result was Active.

For `COc1c(C)c2c(c(O)c1C/C=C(\C)CCC(=O)O)C(=O)OC2` [MYCOPHENOLIC ACID], the “inhibition zone (IZ)” value in the assay with Saccharomyces cerevisiae [1] and in the assay on Saccharomyces cerevisiae [3] was 0 cm throughout. Also, the outcome in the assay with Candida albicans [2] and in the assay on Candida albicans [4] was inactive.

With `COC(=O)C1=C(C)NC(C)=C(C(=O)OC)C1c1ccccc1[N+](=O)[O-]` [NIFEDIPINE], the “inhibition zone (IZ)” value in the assay on Saccharomyces cerevisiae [1] and with Saccharomyces cerevisiae [3] was 0 cm throughout. The result with Candida albicans [2] and with Candida albicans [4] was inactive.

`COC(=O)C1=C(C)NC(C)=C(C(=O)OCCCN2CCC(c3ccccc3)(c3ccccc3)CC2)[C@H]1c1cccc([N+](=O)[O-])c1` [NIGULDIPINE]: the “inhibition zone (IZ)” value in the assay with Saccharomyces cerevisiae [1] is 0.2 cm; with Saccharomyces cerevisiae [3] it was 0.5 cm. Moreover, the result in the assay with Candida albicans [2] was Active. Besides, in the assay on Candida albicans [4], the result was inactive.

Consider `COCCOC(=O)C1=C(C)NC(C)=C(C(=O)OC(C)C)C1c1cccc([N+](=O)[O-])c1` (stereo not given) [NIMODIPINE], for which the “inhibition zone (IZ)” value in the assay with Saccharomyces cerevisiae [1] and in the assay with Saccharomyces cerevisiae [3] was 0 cm in each case. The outcome in the assay on Candida albicans [2] and in the assay on Candida albicans [4] was inactive.

As to `CO[C@@H]1[C@@H](OC(N)=O)[C@@H](O)[C@H](Oc2ccc3c(O)c(NC(=O)c4ccc(O)c(CC=C(C)C)c4)c(=O)oc3c2C)OC1(C)C` [NOVOBIOCIN], the “inhibition zone (IZ)” value in the assay on Saccharomyces cerevisiae [1] and in the assay with Saccharomyces cerevisiae [3] was 0 cm throughout. Besides, the result in the assay with Candida albicans [2] and in the assay with Candida albicans [4] was inactive.

As for `C[C@@H]1O[C@@H](O[C@H]2C[C@@H](O)[C@]3(CO)[C@H]4[C@H](O)C[C@]5(C)[C@@H](C6=CC(=O)OC6)CC[C@]5(O)[C@@H]4CC[C@]3(O)C2)[C@H](O)[C@H](O)[C@H]1O` [OUABAIN], the “inhibition zone (IZ)” value in the assay on Saccharomyces cerevisiae [1] and in the assay on Saccharomyces cerevisiae [3] was 0 cm throughout. Besides, the result with Candida albicans [2] and in the assay with Candida albicans [4] was inactive.

For the molecule `Oc1cccc2cccnc12` [OXYQUINOLINE], the “inhibition zone (IZ)” value in the assay on Saccharomyces cerevisiae [1] and with Saccharomyces cerevisiae [3] was 0 cm in each case. Further, the outcome in the assay on Candida albicans [2] and in the assay with Candida albicans [4] was inactive.

`CC(=O)O[C@H]1C(=O)[C@@]2(C)[C@H]([C@H](OC(=O)c3ccccc3)[C@]3(O)C[C@H](OC(=O)[C@H](O)[C@@H](NC(=O)c4ccccc4)c4ccccc4)C(C)=C1C3(C)C)[C@]1(OC(C)=O)CO[C@@H]1C[C@@H]2O` [PACLITAXEL]: the “inhibition zone (IZ)” value in the assay with Saccharomyces cerevisiae [1] and with Saccharomyces cerevisiae [3] was 0 cm in each case. The outcome in the assay with Candida albicans [2] and in the assay on Candida albicans [4] was inactive.

On to `CC(=O)[C@H]1CC[C@H]2[C@@H]3CCC4=CC(=O)CC[C@]4(C)[C@H]3CC[C@]12C` [PROGESTERONE], for which the “inhibition zone (IZ)” value with Saccharomyces cerevisiae [1] and in the assay on Saccharomyces cerevisiae [3] was 0 cm in each case. Moreover, the outcome in the assay on Candida albicans [2] and in the assay on Candida albicans [4] was inactive.

As to `CCC(=O)Nc1ccc(Cl)c(Cl)c1` [PROPANIL], the “inhibition zone (IZ)” value with Saccharomyces cerevisiae [1] came to 0.9 cm; with Saccharomyces cerevisiae [3] it was 0.3 cm. Further, the result in the assay on Candida albicans [2] and in the assay on Candida albicans [4] was Active.

As for `O=c1c(O)c(-c2ccc(O)c(O)c2)oc2cc(O)cc(O)c12` [QUERCETIN], the “inhibition zone (IZ)” value with Saccharomyces cerevisiae [1] and in the assay on Saccharomyces cerevisiae [3] was 0 cm each time. Moreover, the outcome with Candida albicans [2] and in the assay on Candida albicans [4] was inactive.

In the case of `C=C[C@H]1CN2CC[C@H]1C[C@@H]2[C@@H](O)c1ccnc2ccc(OC)cc12` [QUINIDINE], the “inhibition zone (IZ)” value with Saccharomyces cerevisiae [1] and in the assay on Saccharomyces cerevisiae [3] was 0.8 cm each time. Also, the outcome in the assay on Candida albicans [2] and with Candida albicans [4] was Active.

With `COC(=O)c1ccccc1-c1c2ccc(=N)cc-2oc2cc(N)ccc12.Cl` [RHODAMINE123], the “inhibition zone (IZ)” value in the assay on Saccharomyces cerevisiae [1] is 0.1 cm; in the assay with Saccharomyces cerevisiae [3], 1 cm. Also, the result in the assay with Candida albicans [2] was Active. In the assay with Candida albicans [4], the result was inactive.

As for `CC/N=c1\cc2oc3cc(NCC)c(C)cc3c(-c3ccccc3C(=O)OCC)c-2cc1C.Cl` [RHODAMINE 6G HYDROCHLORIDE], the “inhibition zone (IZ)” value with Saccharomyces cerevisiae [1] turned out to be 0.2 cm; in the assay on Saccharomyces cerevisiae [3] it was 0.8 cm. For the same molecule, the outcome in the assay on Candida albicans [2] was Active. Moreover, in the assay on Candida albicans [4], the result was inactive.

Consider `CO[C@H]1/C=C/O[C@@]2(C)Oc3c(C)c(O)c4c(O)c(c(/C=N/N5CCN(C)CC5)c(O)c4c3C2=O)NC(=O)/C(C)=C\C=C\[C@H](C)[C@H](O)[C@@H](C)[C@@H](O)[C@@H](C)[C@H](OC(C)=O)[C@@H]1C` [RIFAMPIN], for which the “inhibition zone (IZ)” value in the assay with Saccharomyces cerevisiae [1] and with Saccharomyces cerevisiae [3] was 0 cm throughout. The outcome with Candida albicans [2] and with Candida albicans [4] was inactive.

On to `CC/C(=C(\c1ccccc1)c1ccc(OCCN(C)C)cc1)c1ccccc1` [TAMOXIFEN], for which the “inhibition zone (IZ)” value amounted to 0.2 cm in the assay with Saccharomyces cerevisiae [1] and 0.7 cm with Saccharomyces cerevisiae [3]. Also, the result in the assay on Candida albicans [2] was Active. Besides, the result with Candida albicans [4] was inactive.

Take `CN(C/C=C/C#CC(C)(C)C)Cc1cccc2ccccc12` [TERBINAFINE]: the “inhibition zone (IZ)” value in the assay on Saccharomyces cerevisiae [1] stood at 0 cm; in the assay with Saccharomyces cerevisiae [3], 1.2 cm. Moreover, the result with Candida albicans [2] was Active. In addition, the result with Candida albicans [4] was inactive.

For `CC(=O)Nc1c2sscc-2n(C)c1=O` [THIOLUTIN], the “inhibition zone (IZ)” value is 0.7 cm in the assay with Saccharomyces cerevisiae [1] and 0 cm in the assay with Saccharomyces cerevisiae [3]. Besides, the result with Candida albicans [2] was inactive. In addition, the result in the assay with Candida albicans [4] was Active.

In the case of `CC[C@@]1(O)C(=O)OCc2c1cc1n(c2=O)Cc2cc3c(CN(C)C)c(O)ccc3nc2-1` [TOPOTECAN], the “inhibition zone (IZ)” value was 0.2 cm with Saccharomyces cerevisiae [1] and 0.5 cm in the assay on Saccharomyces cerevisiae [3]. For the same molecule, in the assay with Candida albicans [2], the outcome was Active. For the same molecule, the result with Candida albicans [4] was inactive.

Take `c1ccc(C(c2ccccc2)(c2ccccc2)c2ncc[nH]2)cc1` [TRITYL IMIDAZOLE]: the “inhibition zone (IZ)” value was 0 cm in the assay on Saccharomyces cerevisiae [1] and 1.3 cm with Saccharomyces cerevisiae [3]. The result with Candida albicans [2] was Active. Also, the outcome in the assay with Candida albicans [4] was inactive.

Consider `CC[C@]1(O)C[C@@H]2CN(CCc3c([nH]c4ccccc34)[C@@](C(=O)OC)(c3cc4c(cc3OC)N(C)[C@H]3[C@@](O)(C(=O)OC)[C@H](OC(C)=O)[C@]5(CC)C=CCN6CC[C@]43[C@@H]65)C2)C1` [VINBLASTINE], for which the “inhibition zone (IZ)” value was 0 cm with Saccharomyces cerevisiae [1] and 0.6 cm in the assay on Saccharomyces cerevisiae [3]. Moreover, the outcome in the assay with Candida albicans [2] was Active. Besides, in the assay on Candida albicans [4], the result was inactive.

On to `C[C@@H](c1ncncc1F)[C@](O)(Cn1cncn1)c1ccc(F)cc1F` [VORICONAZOLE], for which the “inhibition zone (IZ)” value in the assay on Saccharomyces cerevisiae [1] came out at 0.8 cm; with Saccharomyces cerevisiae [3], 1.9 cm. The result with Candida albicans [2] and in the assay on Candida albicans [4] was Active.

In the case of `COC(=O)[C@@H]1[C@H]2C[C@H]3c4[nH]c5ccccc5c4CCN3C[C@@H]2CC[C@@H]1O.Cl` [YOHIMBINE HYDROCHLORIDE], the “inhibition zone (IZ)” value in the assay with Saccharomyces cerevisiae [1] and in the assay on Saccharomyces cerevisiae [3] was 1.3 cm each time. Moreover, the outcome in the assay on Candida albicans [2] and with Candida albicans [4] was Active.
